Test results taken from PubChem BioAssay AID192 (DTP/NCI, 2004).
Values joined by “and” are separate entries in the source; they are usually repeats but may differ in a detail not shown here. Equal entries are not always repeated. Toxic doses and inconclusive results are not listed. How the source made its calls: active means survival T/C of 150% or more; inactive means T/C below 125% in these data.

Test system: BDF1 mice, B16 melanoma ip, median survival T/C
Experiment: NCI In Vivo Anticancer Drug Screen. Data for tumor model B16 Melanoma (intraperitoneal) in B6D2F1 (BDF1) mice
Conditions: endpoint: median survival time, higher = longer survival
Outline: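 Compounds were tested in mice carrying transplantable tumors. Survival or tumor size was recorded, and each value is the treated-group measurement (T) divided by that of the vehicle-treated control group (C).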

[1] = dose: 100.0 mg/kg/injection, schedule: Q04DX003 (ip), vehicle: Klucel (hydroxypropylcellulose) (HPC)
[2] = dose: 25.0 mg/kg/injection, schedule: Q01DX009 (ip), vehicle: saline with Tween-80
[3] = dose: 100.0 mg/kg/injection, schedule: Q01DX009 (ip), vehicle: saline with Tween-80
[4] = dose: 200.0 mg/kg/injection, schedule: Q01DX009 (ip), vehicle: saline with Tween-80
[5] = dose: 400.0 mg/kg/injection, schedule: Q01DX009 (ip), vehicle: saline with Tween-80
[6] = dose: 12.5 mg/kg/injection, schedule: Q01DX009 (ip), vehicle: saline
[7] = dose: 50.0 mg/kg/injection, schedule: Q01DX009 (ip), vehicle: saline

Measured: T/C

NC(N)=Nc1nc2ccccc2s1
inactive: dose: 25.0 mg/kg/injection, schedule: Q04DX003 (ip), vehicle: Klucel (hydroxypropylcellulose) (HPC) 105 % of control | dose: 50.0 mg/kg/injection, schedule: Q04DX003 (ip), vehicle: Klucel (hydroxypropylcellulose) (HPC) 97 % of control | [1] 97 % of control

C1CC[N-]CC1.CC(=N\O)/C(C)=N/O.CC(=N\O)/C(C)=N/O.[CH2-]C.[Co+2]
inactive: dose: 25.0 mg/kg/injection, schedule: Q01DX009 (ip), vehicle: Klucel (hydroxypropylcellulose) (HPC) 111 % of control | dose: 50.0 mg/kg/injection, schedule: Q01DX009 (ip), vehicle: Klucel (hydroxypropylcellulose) (HPC) 102 % of control

CC1=CC(=O)c2ccccc2C1=O
inactive: [2] 108 % of control and 118 % of control

CCCCNC(=O)Nc1ccccc1Cl
inactive: [3] 100 % of control | [4] 98 % of control | [5] 98 % of control

CC(C)c1ccc(O)c(O)c1
inactive: [6] 95 % of control | [2] 104 % of control | dose: 25.0 mg/kg/injection, schedule: Q01DX009 (ip), vehicle: saline 100 % of control | [7] 96 % of control

CC1(C)C=C(C(Br)c2ccc(Cl)cc2)C(=O)c2ccccc21 (centres undefined)
inactive: dose: 50.0 mg/kg/injection, schedule: Q01DX009 (ip), vehicle: saline with Tween-80 103 % of control | [3] 106 % of control | [4] 99 % of control | [5] 97 % of control

Cc1ccc(NC(=O)c2ccc(Cl)cc2)c(Br)c1
inactive: dose: 100.0 mg/kg/injection, schedule: Q04DX003 (ip), vehicle: saline with Tween-80 105 % of control | dose: 200.0 mg/kg/injection, schedule: Q04DX003 (ip), vehicle: saline with Tween-80 97 % of control | dose: 400.0 mg/kg/injection, schedule: Q04DX003 (ip), vehicle: saline with Tween-80 88 % of control

CCOC(=O)c1cnc(NN)nc1Nc1cc(Cl)cc(Cl)c1
inactive: dose: 6.25 mg/kg/injection, schedule: Q01DX009 (ip), vehicle: saline with Tween-80 97 % of control | dose: 12.5 mg/kg/injection, schedule: Q01DX009 (ip), vehicle: saline with Tween-80 101 % of control | [2] 91 % of control

COC1=NCN=C2SC=C(N)N=C12
inactive: dose: 3.13 mg/kg/injection, schedule: Q01DX009 (ip), vehicle: saline 105 % of control | dose: 6.25 mg/kg/injection, schedule: Q01DX009 (ip), vehicle: saline 100 % of control and 109 % of control | [6] 96 % of control and 98 % of control | [7] 98 % of control and 100 % of control

Nc1ccc2nc3ccc(N)cc3[n+](-c3ccccc3)c2c1
inactive: dose: 3.75 mg/kg/injection, schedule: Q01DX009 (ip), vehicle: saline with Tween-80 97 % of control | dose: 7.5 mg/kg/injection, schedule: Q01DX009 (ip), vehicle: saline with Tween-80 102 % of control | dose: 10.0 mg/kg/injection, schedule: Q04DX003 (ip), vehicle: saline with Tween-80 100 % of control | dose: 15.0 mg/kg/injection, schedule: Q01DX009 (ip), vehicle: saline with Tween-80 102 % of control | dose: 20.0 mg/kg/injection, schedule: Q04DX003 (ip), vehicle: saline with Tween-80 107 % of control | dose: 30.0 mg/kg/injection, schedule: Q01DX009 (ip), vehicle: saline with Tween-80 118 % of control | dose: 40.0 mg/kg/injection, schedule: Q04DX003 (ip), vehicle: saline with Tween-80 100 % of control

CCCCCCNC(=O)Nc1cccc(Cl)c1C
inactive: [1] 92 % of control | dose: 200.0 mg/kg/injection, schedule: Q04DX003 (ip), vehicle: Klucel (hydroxypropylcellulose) (HPC) 90 % of control | dose: 400.0 mg/kg/injection, schedule: Q04DX003 (ip), vehicle: Klucel (hydroxypropylcellulose) (HPC) 87 % of control

CC(=O)Oc1ccc(OC(C)=O)c2c1C(=O)C=CC2=O
inactive: dose: 0.5 mg/kg/injection, schedule: Q01DX009 (ip), vehicle: Klucel (hydroxypropylcellulose) (HPC) 86 % of control | dose: 1.0 mg/kg/injection, schedule: Q01DX009 (ip), vehicle: Klucel (hydroxypropylcellulose) (HPC) 88 % of control
